According to the NIST ThermoML archive (doi:10.1021/acs.jced.8b00591):

Experiments:
[1] = 101.3 kPa, Liquid; for viscosity: Falling or rolling sphere viscometry; for mass density: Vibrating tube method
[2] = xn = mol fraction of the nth substance listed; settings: 101.3 kPa, Liquid, x2 = 0; for viscosity: Falling or rolling sphere viscometry; for mass density: Vibrating tube method

CCCC[n+]1ccn(C)c1.O=S(=O)([N-]S(=O)(=O)C(F)(F)F)C(F)(F)F
[1]
Settings	mass density [kg/m3]	viscosity [mPa·s]
288.15 K	1445.66	78.02
293.15 K	1440.84	61.32
298.15 K	1436.01	48.93
303.15 K	1431.21	39.84
308.15 K	1426.43	32.91
313.15 K	1421.66	27.56
318.15 K	1416.91	23.33
323.15 K	1412.17	19.97
328.15 K	1407.45	17.41

CCn1cc[n+](C)c1.O=S(=O)([N-]S(=O)(=O)C(F)(F)F)C(F)(F)F
[1]
Settings	mass density [kg/m3]	viscosity [mPa·s]
288.15 K	1528.55	49.41
293.15 K	1523.47	40.36
298.15 K	1518.39	33.52
303.15 K	1513.34	28.35
308.15 K	1508.3	24.15
313.15 K	1503.28	20.76
318.15 K	1498.27	17.9
323.15 K	1493.28	15.93
328.15 K	1488.31	14.26

CCOC(=O)OCC [diethyl carbonate]
[1]
Settings	mass density [kg/m3]	viscosity [mPa·s]
288.15 K	980.49	0.871
293.15 K	974.91	0.812
298.15 K	969.3	0.757
303.15 K	963.66	0.708
308.15 K	958	0.664
313.15 K	952.32	0.625
318.15 K	946.6	0.589
323.15 K	940.86	0.556
328.15 K	935.08	0.525

CCOC(=O)OCC [diethyl carbonate] + CCCC[n+]1ccn(C)c1.O=S(=O)([N-]S(=O)(=O)C(F)(F)F)C(F)(F)F
[2]
Settings	mass density [kg/m3]	viscosity [mPa·s]
288.15 K	980.49	0.871
293.15 K	974.91	0.812
298.15 K	969.3	0.757
303.15 K	963.66	0.708
308.15 K	958	0.664
313.15 K	952.32	0.625
318.15 K	946.6	0.589
323.15 K	940.86	0.556
328.15 K	935.08	0.525

CCOC(=O)OCC [diethyl carbonate] + CCn1cc[n+](C)c1.O=S(=O)([N-]S(=O)(=O)C(F)(F)F)C(F)(F)F
[2]
Settings	mass density [kg/m3]	viscosity [mPa·s]
288.15 K	980.49	0.871
293.15 K	974.91	0.812
298.15 K	969.3	0.757
303.15 K	963.66	0.708
308.15 K	958	0.664
313.15 K	952.32	0.625
318.15 K	946.6	0.589
323.15 K	940.86	0.556
328.15 K	935.08	0.525

COC(=O)OC [dimethyl carbonate]
[1]
Settings	mass density [kg/m3]	viscosity [mPa·s]
288.15 K	1076.39	0.669
293.15 K	1069.86	0.626
298.15 K	1063.27	0.587
303.15 K	1056.65	0.552
308.15 K	1050	0.52
313.15 K	1043.29	0.498
318.15 K	1036.57	0.472
323.15 K	1029.83	0.45
328.15 K	1023.03	0.429

COC(=O)OC [dimethyl carbonate] + CCCC[n+]1ccn(C)c1.O=S(=O)([N-]S(=O)(=O)C(F)(F)F)C(F)(F)F
[2]
Settings	mass density [kg/m3]	viscosity [mPa·s]
288.15 K	1076.39	0.669
293.15 K	1069.86	0.626
298.15 K	1063.27	0.587
303.15 K	1056.65	0.552
308.15 K	1050	0.52
313.15 K	1043.29	0.498
318.15 K	1036.57	0.472
323.15 K	1029.83	0.45
328.15 K	1023.03	0.429

COC(=O)OC [dimethyl carbonate] + CCn1cc[n+](C)c1.O=S(=O)([N-]S(=O)(=O)C(F)(F)F)C(F)(F)F
[2]
Settings	mass density [kg/m3]	viscosity [mPa·s]
288.15 K	1076.39	0.669
293.15 K	1069.86	0.626
298.15 K	1063.27	0.587
303.15 K	1056.65	0.552
308.15 K	1050	0.52
313.15 K	1043.29	0.498
318.15 K	1036.57	0.472
323.15 K	1029.83	0.45
328.15 K	1023.03	0.429
